In patent US6979686B1, “Substituted pyrazoles as p38 kinase inhibitors” (Pharmacia Corporation, priority 2001, dated 2005):

target: T1, human p38 kinase alpha (Homo sapiens, UniProt Q16539); experiment: p38 kinase in vitro assay, phosphorylation of biotinylated PHAS-I with 32P-ATP; type: biochemical; settings: @ 1.0 uM
T1 construct: GST (N, cleaved yes); made in house; host or cells: E. coli DH10B
T1 sequence (Q16539 whole entry): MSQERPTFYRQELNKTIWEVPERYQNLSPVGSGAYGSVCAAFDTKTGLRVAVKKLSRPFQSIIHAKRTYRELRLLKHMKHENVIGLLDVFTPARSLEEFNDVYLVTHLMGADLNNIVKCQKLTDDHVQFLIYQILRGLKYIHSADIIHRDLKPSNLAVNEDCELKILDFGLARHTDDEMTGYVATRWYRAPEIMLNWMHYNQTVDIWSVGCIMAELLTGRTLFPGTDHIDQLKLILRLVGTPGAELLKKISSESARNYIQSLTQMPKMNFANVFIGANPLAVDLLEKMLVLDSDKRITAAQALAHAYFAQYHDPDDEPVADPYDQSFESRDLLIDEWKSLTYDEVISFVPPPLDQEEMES

Row | Compound | P38 alpha kinase % inhib @ conc. [% @] | P38 alpha kinase % inhib @ conc. (uM) [% @]
1 | C=CCNC(=O)NCCCc1[nH]nc(-c2ccc(F)cc2)c1-c1ccncc1 [Example B-1217] | 87.0 | –
2 | O=C(NCCc1[nH]nc(-c2ccc(F)cc2)c1-c1ccncc1)c1ccccc1C(F)(F)F [Example B-0996] | – | 54.0
3 | O=S(=O)(NCc1[nH]nc(-c2ccc(F)cc2)c1-c1ccncc1)c1cc(Br)c(Br)s1 [Example B-0136] | 77.0 | –
4 | CC(=O)OCC(=O)NCCc1[nH]nc(-c2ccc(F)cc2)c1-c1ccncc1 [Example B-0981] | – | 62.0
5 | O=S(=O)(NCCCc1[nH]nc(-c2ccc(F)cc2)c1-c1ccncc1)c1ccc(F)cc1F [Example B-1195] | – | 52.0
6 | O=C(NCCc1[nH]nc(-c2ccc(F)cc2)c1-c1ccncc1)c1ccccn1 [Example B-1007] | – | 52.0
7 | CCCCOc1ccc(NC(=O)NCCc2[nH]nc(-c3ccc(F)cc3)c2-c2ccncc2)cc1 [Example B-0944] | – | 45.0
8 | O=C(NCCCc1[nH]nc(-c2ccc(F)cc2)c1-c1ccncc1)NCc1ccccc1 [Example B-1208] | 82.0 | –
9 | O=C(NCCc1ccccc1)NCCc1[nH]nc(-c2ccc(F)cc2)c1-c1ccncc1 [Example B-0945] | – | 96.0
10 | O=C(NCCCc1[nH]nc(-c2ccc(F)cc2)c1-c1ccncc1)c1cccnc1 [Example B-1182] | – | 72.0
11 | CCNC(=O)NCCc1[nH]nc(-c2ccc(F)cc2)c1-c1ccncc1 [Example B-1049] | – | 67.0

same assay, conditions: @ 1.0 uM; read-out: P38 alpha kinase % inhib @ conc.

Row | Compound | inhibition at 1 µM [%]
12 | CCCCOc1ccc(C(=O)NCc2[nH]nc(-c3ccc(F)cc3)c2-c2ccncc2)cc1 [Example B-0041] | 65
13 | Cc1ccc(C(=O)NCc2[nH]nc(-c3ccc(F)cc3)c2-c2ccncc2)cc1 [Example B-0021] | 68
14 | CC(=O)OCC(=O)NCc1[nH]nc(-c2ccc(F)cc2)c1-c1ccncc1 [Example B-0004] | 80

same assay, conditions: @ 10.0 uM

Row | Compound | P38 alpha kinase % inhib @ conc. [% @] | P38 alpha kinase IC50, uM or % inhib @ conc. (uM): % inhib
15 | COCC(C)NC(=O)Cn1nc(-c2ccc(F)cc2)c(-c2ccncc2)c1C (stereo not drawn) [Example B-2325] | 60.0 | –
16 | Cc1c(-c2ccncc2)c(-c2ccc(F)cc2)nn1CC(=O)NC1CCCc2ccccc21 (stereo not drawn) [Example B-2326] | 76.0 | –
17 | COc1ccc(OC)c(NC(=O)Cn2nc(-c3ccc(F)cc3)c(-c3ccncc3)c2C)c1 [Example B-2431] | – | 85.0% 2
18 | Cc1c(-c2ccncc2)c(-c2ccc(F)cc2)nn1CC(=O)NC(C)c1ccc(Br)cc1 (stereo not drawn) [Example B-2344] | 71.0 | –
19 | Cc1c(-c2ccncc2)c(-c2ccc(F)cc2)nn1CC(=O)NC1CCSC1=O (stereo not drawn) [Example B-2323] | 69.0 | –
20 | Cc1c(-c2ccncc2)c(-c2ccc(F)cc2)nn1CC(=O)Nc1ccc(Cl)cc1 [Example B-2418] | – | 88.0% @
21 | CCN1CC(NC(=O)Cn2nc(-c3ccc(F)cc3)c(-c3ccncc3)c2C)CN1CC [Example B-2357] | 47.0 | –
22 | COCCN(C)C(=O)Cn1nc(-c2ccc(F)cc2)c(-c2ccncc2)c1C [Example B-2374] | 35.0 | –
23 | CCOC(=O)c1cc(-c2ccc(NC(=O)Cn3nc(-c4ccc(F)cc4)c(-c4ccncc4)c3C)cc2)oc1C [Example B-2450] | – | 87.0% @

same assay, conditions: @ 100.0 uM

Row | Compound | P38 alpha kinase % inhib @ conc. [% @]
24 | Cc1c(-c2ccncc2)c(-c2ccc(F)cc2)nn1CC(=O)N(C)Cc1ccccc1 [Example B-2370] | 73

same assay, conditions: Table 8; 1% DMSO; read-out: p38α Kinase Assay IC50

Row | Compound | IC50 [nM]
25 | O=C(O)CCC(=O)N1CCN(c2n[nH]c(-c3ccc(Cl)cc3)c2-c2ccncc2)CC1 [A-321 (dihydrate), 4-[5-(4-chlorophenyl)-4-(4-pyridinyl)-1H-pyrazol-3-yl]-γ-oxo-1-piperazinebutanoic acid, dihydrate] | 770

same assay, conditions: in vitro P38-alpha kinase inhibition; read-out: P38 alpha kinase IC50

Row | Compound | IC50 [nM]
26 | CC(NC(=O)c1ccc(F)c(C(F)(F)F)c1)c1[nH]nc(-c2ccc(F)cc2)c1-c1ccncc1 (stereo not drawn) [Example B-0689] | 14600
27 | CCCS(=O)(=O)NC(C)c1[nH]nc(-c2ccc(F)cc2)c1-c1ccncc1 (stereo not drawn) [Example B-0570] | 270
28 | CCS(=O)(=O)NC(C)c1[nH]nc(-c2ccc(F)cc2)c1-c1ccncc1 (stereo not drawn) [Example B-0572] | 270
29 | CC(NS(=O)(=O)c1ccc(F)cc1Cl)c1[nH]nc(-c2ccc(F)cc2)c1-c1ccncc1 (stereo not drawn) [Example B-0626] | < 100
30 | O=C(NC(Cc1ccccc1)c1[nH]nc(-c2ccc(F)cc2)c1-c1ccncc1)c1cccc(Br)c1 (stereo not drawn) [Example B-0838] | 3100
31 | CC(NC(=O)C1CCCC1)c1[nH]nc(-c2ccc(F)cc2)c1-c1ccncc1 (stereo not drawn) [Example B-0553] | 1440
32 | Cc1ccc(S(=O)(=O)NC(Cc2ccccc2)C(=O)NC(Cc2ccccc2)c2[nH]nc(-c3ccc(F)cc3)c2-c2ccncc2)cc1 (stereo not drawn) [Example B-0859] | 39500
33 | O=S(=O)(NCCc1[nH]nc(-c2ccc(F)cc2)c1-c1ccncc1)c1ccc(Cl)s1 [Example B-1101] | 26
34 | Cc1cccc(C)c1NC(=O)NC(Cc1ccccc1)c1[nH]nc(-c2ccc(F)cc2)c1-c1ccncc1 (stereo not drawn) [Example B-0778] | 51000
35 | CC(NC(=O)NC(C)c1[nH]nc(-c2ccc(F)cc2)c1-c1ccncc1)c1ccccc1 (stereo not drawn) [Example B-0414] | 2540
36 | C[C@@H](NS(=O)(=O)Cc1ccccc1[N+](=O)[O-])c1[nH]nc(-c2ccc(F)cc2)c1-c1ccncc1 [Example B-0442] | < 100
37 | O=S(=O)(NC(Cc1ccccc1)c1[nH]nc(-c2ccc(F)cc2)c1-c1ccncc1)c1ccccc1F (stereo not drawn) [Example B-0759] | 300
38 | O=S(=O)(NCCc1[nH]nc(-c2ccc(F)cc2)c1-c1ccncc1)c1ccc(Cl)cc1 [Example B-1061] | 30
39 | Cc1ccc(C)c(S(=O)(=O)NCCc2[nH]nc(-c3ccc(F)cc3)c2-c2ccncc2)c1 [Example B-1096] | < 100
40 | C=CCNC(=O)NC(C)c1[nH]nc(-c2ccc(F)cc2)c1-c1ccncc1 (stereo not drawn) [Example B-0589] | 1710
41 | O=C(NCCc1[nH]nc(-c2ccc(F)cc2)c1-c1ccncc1)c1cccc(C(F)(F)F)c1 [Example B-1123] | 2930
42 | O=S(=O)(NCCc1[nH]nc(-c2ccc(F)cc2)c1-c1ccncc1)c1cc(Cl)ccc1Cl [Example B-1066] | < 100
43 | O=S(=O)(NCCc1[nH]nc(-c2ccc(F)cc2)c1-c1ccncc1)c1c(Cl)cccc1Cl [Example B-1081] | < 100
44 | CC(=O)OC(C)(C)C(=O)NC(Cc1ccccc1)c1[nH]nc(-c2ccc(F)cc2)c1-c1ccncc1 (stereo not drawn) [Example B-0834] | 1250
45 | CC(NS(=O)(=O)c1ccccc1F)c1[nH]nc(-c2ccc(F)cc2)c1-c1ccncc1 (stereo not drawn) [Example B-0569] | 150
46 | CC(=O)NC(Cc1ccccc1)c1[nH]nc(-c2ccc(F)cc2)c1-c1ccncc1 (stereo not drawn) [Example B-0803] | 57
47 | CC(NC(=O)c1ccccc1I)c1[nH]nc(-c2ccc(F)cc2)c1-c1ccncc1 (stereo not drawn) [Example B-0531] | 500
48 | CCN(CC)C(=O)NC(Cc1ccccc1)c1[nH]nc(-c2ccc(F)cc2)c1-c1ccncc1 (stereo not drawn) [Example B-0787] | 1500
49 | CC(NS(=O)(=O)C(F)(F)F)c1[nH]nc(-c2ccc(F)cc2)c1-c1ccncc1 (stereo not drawn) [Example B-0568] | 1220
50 | CCCOC(=O)NC(Cc1ccccc1)c1[nH]nc(-c2ccc(F)cc2)c1-c1ccncc1 (stereo not drawn) [Example B-0747] | 1100
51 | CC(NC(=O)c1cnc2ccccc2n1)c1[nH]nc(-c2ccc(F)cc2)c1-c1ccncc1 (stereo not drawn) [Example B-0561] | 2070

same assay, conditions: in vitro P38-alpha kinase; read-out: P38 alpha kinase IC50

Row | Compound | IC50 [nM]
52 | O=C(c1cccc(F)c1F)N1CCC(c2[nH]nc(-c3ccc(F)cc3)c2-c2ccncc2)CC1 [Example B-1411] | < 100
53 | COc1ccc(OC)c(S(=O)(=O)NCCCc2[nH]nc(-c3ccc(F)cc3)c2-c2ccncc2)c1 [Example B-1262] | < 100
54 | Cc1c(-c2ccncc2)c(-c2ccc(F)cc2)nn1CC(=O)NCCc1cccnc1 [Example B-2291] | 19
55 | CN1CCCC1CCNC(=O)NCCCc1[nH]nc(-c2ccc(F)cc2)c1-c1ccncc1 (stereo not drawn) [Example B-1315] | 55
56 | Cc1noc(C)c1C(=O)NCCCc1[nH]nc(-c2ccc(F)cc2)c1-c1ccncc1 [Example B-1358] | 160
57 | O=S(=O)(NCCCc1[nH]nc(-c2ccc(F)cc2)c1-c1ccncc1)c1ccccc1C(F)(F)F [Example B-1263] | 1050
58 | N#Cc1ccccc1S(=O)(=O)NCCCc1[nH]nc(-c2ccc(F)cc2)c1-c1ccncc1 [Example B-1255] | 12900
59 | CC(C)COC(=O)N1CCC(c2[nH]nc(-c3ccc(F)cc3)c2-c2ccncc2)CC1 [Example B-1424] | 860
60 | O=S(=O)(NCCCc1[nH]nc(-c2ccc(F)cc2)c1-c1ccncc1)c1ccc(-c2ccccc2)cc1 [Example B-1286] | 150
61 | O=C(NCCCc1[nH]nc(-c2ccc(F)cc2)c1-c1ccncc1)c1ccc(F)c(F)c1 [Example B-1330] | 53
62 | O=S(=O)(c1cc(Cl)ccc1Cl)N1CCC(c2[nH]nc(-c3ccc(F)cc3)c2-c2ccncc2)CC1 [Example B-1450] | 2100
63 | O=C(O)c1ccccc1S(=O)(=O)NCc1[nH]nc(-c2ccc(F)cc2)c1-c1ccncc1 [Example B-0228] | 150
64 | Cc1c(-c2ccncc2)c(-c2ccc(F)cc2)nn1CC(=O)NCC1CC1 [Example B-2276] | 11500
65 | Cc1c(-c2ccncc2)c(-c2ccc(F)cc2)nn1CC(=O)NCCCN(C)C [Example B-2304] | 1410
66 | Cc1c(-c2ccncc2)c(-c2ccc(F)cc2)nn1CC(=O)NCc1ccc(C(C)(C)C)cc1 [Example B-2290] | 2370
67 | Cc1noc(C)c1C(=O)N1CCC(c2[nH]nc(-c3ccc(F)cc3)c2-c2ccncc2)CC1 [Example B-1403] | 4540
68 | O=C(NCc1ccc(S(=O)(=O)NCCCc2[nH]nc(-c3ccc(F)cc3)c2-c2ccncc2)s1)c1ccccc1 [Example B-1285] | 57
69 | O=S(=O)(NCCCc1[nH]nc(-c2ccc(F)cc2)c1-c1ccncc1)c1ccc(-c2ccon2)s1 [Example B-1290] | 260
